Experimental data published in ChEMBL document CHEMBL3046461, “Synthesis and herbicidal activity of sulfonanilides having a pyrimidinyl-containing group at the 2-position” (J Pestic Sci, 2011).

Tests used:
Oryza sativa = assay: Phytotoxicity against two-leaf stage paddy Oryza sativa (rice) seedlings assessed as induction of crop damage after 28 days post compound application; format: organism-based; conditions: in vivo, 672 h
Echinochloa oryzicola = assay: Herbicidal activity against Echinochloa oryzicola assessed as induction of crop damage after 28 days post compound application; format: functional
Pontederia vaginalis = assay: Herbicidal activity against Monochoria vaginalis assessed as induction of crop damage after 28 days post compound application; format: functional
[1] = test system: Schoenoplectiella juncoides; assay: Herbicidal activity against Schoenoplectiella juncoides subsp. Hotarui (Ohwi) T. Koyama assessed as induction of crop damage after 28 days post compound application; format: functional

With `CCS(=O)(=O)Nc1ccccc1C(O)c1nc(OC)cc(OC)n1` (stereo unspecified) the ED20 (Oryza sativa) was 1000 gAi/ha, the ED20 (Echinochloa oryzicola) was 1000 gAi/ha and the ED90 (Pontederia vaginalis) was 1000 gAi/ha. The ED90 [1] was >1000 gAi/ha.
In the case of `COc1cc(OC)nc(C(Cl)c2ccccc2NS(=O)(=O)C(F)(F)F)n1` (stereo unspecified), the ED20 (Oryza sativa) is reported as 63 gAi/ha, the ED20 (Echinochloa oryzicola) is reported as 1000 gAi/ha and the ED90 (Pontederia vaginalis) is reported as 16 gAi/ha. It also gave an ED90 [1] of 4 gAi/ha.
For `COc1cc(OC)nc(C(S)c2ccccc2NS(=O)(=O)C(F)(F)F)n1` (stereo unspecified), the ED20 (Oryza sativa) was 250 gAi/ha, the ED20 (Echinochloa oryzicola) was >1000 gAi/ha and the ED90 (Pontederia vaginalis) was 63 gAi/ha. For the same molecule, the ED90 [1] was 63 gAi/ha.
Molecule `COc1cc(OC)nc(C(O)c2ccccc2NS(=O)(=O)CF)n1` (stereo unspecified) has an ED20 (Oryza sativa) of 63 gAi/ha, an ED20 (Echinochloa oryzicola) of 63 gAi/ha and an ED90 (Pontederia vaginalis) of 16 gAi/ha. For the same molecule, the ED90 [1] was 16 gAi/ha.
Molecule `CCOc1cccc(C(O)c2nc(OC)cc(OC)n2)c1NS(=O)(=O)C(F)F` (stereo unspecified) has an ED20 (Oryza sativa) of 16 gAi/ha, an ED20 (Echinochloa oryzicola) of 63 gAi/ha and an ED90 (Pontederia vaginalis) of 16 gAi/ha. For the same molecule, the ED90 [1] was 16 gAi/ha.
`COc1cc(OC)nc(C(O)c2cccc(OC)c2NS(=O)(=O)C(F)F)n1` (stereo unspecified) showed an ED20 (Oryza sativa) of 4 gAi/ha, an ED20 (Echinochloa oryzicola) of 16 gAi/ha and an ED90 (Pontederia vaginalis) of 16 gAi/ha. It also gave an ED90 [1] of 63 gAi/ha.
`COc1cc(OC)nc(C(OC(C)=O)c2ccccc2NS(=O)(=O)C(F)(F)F)n1` (stereo unspecified) was tested, and the ED20 (Oryza sativa) was 63 gAi/ha, the ED20 (Echinochloa oryzicola) was >1000 gAi/ha and the ED90 (Pontederia vaginalis) was 16 gAi/ha. It also gave an ED90 [1] of 4 gAi/ha.
Work on `COc1cc(OC)nc(C(O)c2cccc(C)c2NS(=O)(=O)C(F)F)n1` (stereo unspecified) yielded an ED20 (Oryza sativa) of 16 gAi/ha, an ED20 (Echinochloa oryzicola) of 16 gAi/ha and an ED90 (Pontederia vaginalis) of 4 gAi/ha. The ED90 [1] was 16 gAi/ha.
For `CC[S+]([O-])C(c1nc(OC)cc(OC)n1)c1ccccc1NS(=O)(=O)C(F)(F)F` (stereo unspecified), the ED20 (Oryza sativa) was 1000 gAi/ha, the ED20 (Echinochloa oryzicola) was >1000 gAi/ha and the ED90 (Pontederia vaginalis) was 1000 gAi/ha. For the same molecule, the ED90 [1] was 63 gAi/ha.
For `COc1cc(OC)nc(C(O[Si](C)(C)C)c2ccccc2NS(=O)(=O)C(F)(F)F)n1` (stereo unspecified), the ED20 (Oryza sativa) was 63 gAi/ha, the ED20 (Echinochloa oryzicola) was 1000 gAi/ha and the ED90 (Pontederia vaginalis) was 4 gAi/ha. It also gave an ED90 [1] of 4 gAi/ha.
For `COc1ccc(NS(=O)(=O)C(F)F)c(C(O)c2nc(OC)cc(OC)n2)c1` (stereo unspecified), the ED20 (Oryza sativa) was 63 gAi/ha, the ED20 (Echinochloa oryzicola) was >1000 gAi/ha and the ED90 (Pontederia vaginalis) was 250 gAi/ha. The ED90 [1] was >1000 gAi/ha.
For `COc1cc(OC)nc(C(O)c2ccccc2NS(=O)(=O)C(C)C)n1` (stereo unspecified), the ED20 (Oryza sativa) was 1000 gAi/ha, the ED20 (Echinochloa oryzicola) was >1000 gAi/ha and the ED90 (Pontederia vaginalis) was 1000 gAi/ha. For the same molecule, the ED90 [1] was >1000 gAi/ha.
`COCc1cccc(C(O)c2nc(OC)cc(OC)n2)c1NS(=O)(=O)C(F)F` (stereo unspecified) gave an ED20 (Oryza sativa) of 63 gAi/ha, an ED20 (Echinochloa oryzicola) of 16 gAi/ha and an ED90 (Pontederia vaginalis) of 4 gAi/ha. The ED90 [1] was 4 gAi/ha.
`COc1cc(OC)nc(C(O)c2ccc(C)cc2NS(=O)(=O)C(F)F)n1` (stereo unspecified) was tested, and the ED20 (Oryza sativa) was 16 gAi/ha, the ED20 (Echinochloa oryzicola) was 1000 gAi/ha and the ED90 (Pontederia vaginalis) was 16 gAi/ha. The ED90 [1] was 16 gAi/ha.
`CCSC(c1nc(OC)cc(OC)n1)c1ccccc1NS(=O)(=O)C(F)(F)F` (stereo unspecified) was tested, and the ED20 (Oryza sativa) was 63 gAi/ha, the ED20 (Echinochloa oryzicola) was 1000 gAi/ha and the ED90 (Pontederia vaginalis) was 16 gAi/ha. It also gave an ED90 [1] of 4 gAi/ha.
`COc1ccc(C(O)c2nc(OC)cc(OC)n2)c(NS(=O)(=O)C(F)F)c1` (stereo unspecified) showed an ED20 (Oryza sativa) of 16 gAi/ha, an ED20 (Echinochloa oryzicola) of 16 gAi/ha and an ED90 (Pontederia vaginalis) of 16 gAi/ha. For the same molecule, the ED90 [1] was 63 gAi/ha.
For `COc1cc(OC)nc(C(O)c2ccccc2NS(C)(=O)=O)n1` (stereo unspecified), the ED20 (Oryza sativa) was 63 gAi/ha, the ED20 (Echinochloa oryzicola) was 1000 gAi/ha and the ED90 (Pontederia vaginalis) was 250 gAi/ha. For the same molecule, the ED90 [1] was >1000 gAi/ha.
With `CCCc1cccc(C(O)c2nc(OC)cc(OC)n2)c1NS(=O)(=O)C(F)F` (stereo unspecified) the ED20 (Oryza sativa) was 63 gAi/ha, the ED20 (Echinochloa oryzicola) was 16 gAi/ha and the ED90 (Pontederia vaginalis) was 16 gAi/ha. The ED90 [1] was 63 gAi/ha.
With `COc1cc(OC)nc(C(O)c2cc(Cl)ccc2NS(=O)(=O)C(F)F)n1` (stereo unspecified) the ED20 (Oryza sativa) was 1000 gAi/ha, the ED20 (Echinochloa oryzicola) was >1000 gAi/ha and the ED90 (Pontederia vaginalis) was 1000 gAi/ha. The ED90 [1] was >1000 gAi/ha.
For `COc1cc(OC)nc(C(c2ccccc2NS(=O)(=O)C(F)(F)F)N(C)C)n1` (stereo unspecified), the ED20 (Oryza sativa) was 250 gAi/ha, the ED20 (Echinochloa oryzicola) was >1000 gAi/ha and the ED90 (Pontederia vaginalis) was 63 gAi/ha. The ED90 [1] was 16 gAi/ha.
`COc1cc(OC)nc(C(O)c2ccccc2NS(=O)(=O)c2ccccc2)n1` (stereo unspecified) was tested, and the ED20 (Oryza sativa) was 1000 gAi/ha, the ED20 (Echinochloa oryzicola) was >1000 gAi/ha and the ED90 (Pontederia vaginalis) was 1000 gAi/ha. The ED90 [1] was >1000 gAi/ha.
`COc1cc(OC)nc(C(O)c2ccccc2NS(=O)(=O)CC#N)n1` (stereo unspecified) showed an ED20 (Oryza sativa) of 250 gAi/ha, an ED20 (Echinochloa oryzicola) of 1000 gAi/ha and an ED90 (Pontederia vaginalis) of 63 gAi/ha. It also gave an ED90 [1] of 250 gAi/ha.
`COc1cc(OC)nc(C(O)c2cccc(SC)c2NS(=O)(=O)C(F)F)n1` (stereo unspecified) showed an ED20 (Oryza sativa) of 63 gAi/ha, an ED20 (Echinochloa oryzicola) of 250 gAi/ha and an ED90 (Pontederia vaginalis) of 63 gAi/ha. For the same molecule, the ED90 [1] was 63 gAi/ha.
`COc1cc(OC)nc(C(O)c2ccccc2NS(=O)(=O)C(F)F)n1` (stereo unspecified) showed an ED20 (Oryza sativa) of 63 gAi/ha, an ED20 (Echinochloa oryzicola) of 250 gAi/ha and an ED90 (Pontederia vaginalis) of 4 gAi/ha. It also gave an ED90 [1] of 16 gAi/ha.
For `COc1cc(OC)nc(C(O)c2ccccc2NS(N)(=O)=O)n1` (stereo unspecified), the ED20 (Oryza sativa) was 250 gAi/ha, the ED20 (Echinochloa oryzicola) was 1000 gAi/ha and the ED90 (Pontederia vaginalis) was 1000 gAi/ha. For the same molecule, the ED90 [1] was >1000 gAi/ha.
For `C/C=N/OC(c1nc(OC)cc(OC)n1)c1ccccc1NS(=O)(=O)C(F)(F)F` (stereo unspecified), the ED20 (Oryza sativa) was 63 gAi/ha, the ED20 (Echinochloa oryzicola) was 1000 gAi/ha and the ED90 (Pontederia vaginalis) was 63 gAi/ha. For the same molecule, the ED90 [1] was 16 gAi/ha.
`COc1cc(OC)nc(C(O)c2cccc(F)c2NS(=O)(=O)C(F)F)n1` (stereo unspecified) gave an ED20 (Oryza sativa) of 16 gAi/ha, an ED20 (Echinochloa oryzicola) of 250 gAi/ha and an ED90 (Pontederia vaginalis) of 4 gAi/ha. The ED90 [1] was 4 gAi/ha.
`COc1cc(OC)nc(C(O)c2ccc(Cl)cc2NS(=O)(=O)C(F)F)n1` (stereo unspecified) was tested, and the ED20 (Oryza sativa) was 63 gAi/ha, the ED20 (Echinochloa oryzicola) was 250 gAi/ha and the ED90 (Pontederia vaginalis) was 63 gAi/ha. It also gave an ED90 [1] of 63 gAi/ha.
`CCc1cccc(C(O)c2nc(OC)cc(OC)n2)c1NS(=O)(=O)C(F)F` (stereo unspecified) showed an ED20 (Oryza sativa) of 63 gAi/ha, an ED20 (Echinochloa oryzicola) of 16 gAi/ha and an ED90 (Pontederia vaginalis) of 16 gAi/ha. The ED90 [1] was 4 gAi/ha.
With `CCCOc1cccc(C(O)c2nc(OC)cc(OC)n2)c1NS(=O)(=O)C(F)F` (stereo unspecified) the ED20 (Oryza sativa) was 63 gAi/ha, the ED20 (Echinochloa oryzicola) was 250 gAi/ha and the ED90 (Pontederia vaginalis) was 63 gAi/ha. It also gave an ED90 [1] of 250 gAi/ha.
`COc1cc(OC)nc(C(O)c2ccccc2NS(=O)(=O)C(F)(F)F)n1` (stereo unspecified) gave an ED20 (Oryza sativa) of 63 gAi/ha, an ED20 (Echinochloa oryzicola) of 1000 gAi/ha and an ED90 (Pontederia vaginalis) of 4 gAi/ha. It also gave an ED90 [1] of 4 gAi/ha.
`COc1cc(OC)nc(C(OC)c2ccccc2NS(=O)(=O)C(F)(F)F)n1` (stereo unspecified) showed an ED20 (Oryza sativa) of 63 gAi/ha, an ED20 (Echinochloa oryzicola) of 63 gAi/ha and an ED90 (Pontederia vaginalis) of 16 gAi/ha. For the same molecule, the ED90 [1] was 63 gAi/ha.
For `COc1cc(OC)nc(C(O)c2cccc(Oc3ccccc3)c2NS(=O)(=O)C(F)F)n1` (stereo unspecified), the ED20 (Oryza sativa) was 1000 gAi/ha, the ED20 (Echinochloa oryzicola) was >1000 gAi/ha and the ED90 (Pontederia vaginalis) was 250 gAi/ha. The ED90 [1] was >1000 gAi/ha.
`COc1cc(OC)nc(C(O)c2c(Cl)cccc2NS(=O)(=O)C(F)F)n1` (stereo unspecified) was tested, and the ED20 (Oryza sativa) was 1000 gAi/ha, the ED20 (Echinochloa oryzicola) was >1000 gAi/ha and the ED90 (Pontederia vaginalis) was 64 gAi/ha. It also gave an ED90 [1] of 250 gAi/ha.
For `COc1cc(OC)nc(C(O)c2ccccc2NS(=O)(=O)CCl)n1` (stereo unspecified), the ED20 (Oryza sativa) was 250 gAi/ha, the ED20 (Echinochloa oryzicola) was 1000 gAi/ha and the ED90 (Pontederia vaginalis) was 16 gAi/ha. For the same molecule, the ED90 [1] was 63 gAi/ha.
For `CCS(=O)(=O)C(c1nc(OC)cc(OC)n1)c1ccccc1NS(=O)(=O)C(F)(F)F` (stereo unspecified), the ED20 (Oryza sativa) was 1000 gAi/ha, the ED20 (Echinochloa oryzicola) was >1000 gAi/ha and the ED90 (Pontederia vaginalis) was 250 gAi/ha. For the same molecule, the ED90 [1] was 250 gAi/ha.
For `COc1cc(OC)nc(C(O)c2ccccc2NS(=O)(=O)C/C=C/Cl)n1` (stereo unspecified), the ED20 (Oryza sativa) was 250 gAi/ha, the ED20 (Echinochloa oryzicola) was >1000 gAi/ha and the ED90 (Pontederia vaginalis) was 250 gAi/ha. The ED90 [1] was 1000 gAi/ha.
In the case of `COc1cc(OC)nc(C(=O)c2ccccc2NS(=O)(=O)C(F)(F)F)n1`, the ED20 (Oryza sativa) is reported as 63 gAi/ha, the ED20 (Echinochloa oryzicola) is reported as 1000 gAi/ha and the ED90 (Pontederia vaginalis) is reported as 16 gAi/ha. The ED90 [1] was 16 gAi/ha.
`COc1cc(OC)nc(C(O)c2c(F)cccc2NS(=O)(=O)C(F)F)n1` (stereo unspecified) gave an ED20 (Oryza sativa) of 16 gAi/ha, an ED20 (Echinochloa oryzicola) of 63 gAi/ha and an ED90 (Pontederia vaginalis) of 16 gAi/ha. For the same molecule, the ED90 [1] was 16 gAi/ha.
